Reference: article PMC10533593 (Molecular Neurobiology, 2023)

Legend:
D4.4R = target: T1, D4.4R (Homo sapiens, UniProt P21917); type: cell-based; conditions: antagonist 1 μM, added 10 min before dopamine; D4.4R alone
T1 construct: gene DRD4; non-fused full-length human D4.4R in pcDNA3.1, transiently expressed in HEK-293T without alpha1AR; Galphai1-Rluc, Ggamma2-YFP and Gbeta1 reporters co-transfected
T1 sequence (P21917 1-419): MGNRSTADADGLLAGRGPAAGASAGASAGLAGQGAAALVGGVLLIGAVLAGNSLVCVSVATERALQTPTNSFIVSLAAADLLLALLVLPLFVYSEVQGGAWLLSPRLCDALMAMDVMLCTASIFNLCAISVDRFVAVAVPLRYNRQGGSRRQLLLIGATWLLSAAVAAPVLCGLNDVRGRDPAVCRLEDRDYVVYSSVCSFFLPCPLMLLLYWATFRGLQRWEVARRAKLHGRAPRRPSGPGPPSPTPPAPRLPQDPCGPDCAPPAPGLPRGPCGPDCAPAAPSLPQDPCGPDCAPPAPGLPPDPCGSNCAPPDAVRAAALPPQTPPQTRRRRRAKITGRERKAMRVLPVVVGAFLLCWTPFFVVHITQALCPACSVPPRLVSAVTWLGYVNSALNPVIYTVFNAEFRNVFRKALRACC

[1] = target: human α1A adrenoreceptor fused to Rluc (human) (UniProt P35348); test: FRET or BRET; BRET saturation in intact HEK-293T cells: constant amount of cDNA of the Rluc-fused receptor, increasing amounts of cDNA of the YFP-fused receptor; coelenterazine H 5 μM; HBSS with 0.1% glucose; single-phase saturation fit
[2] = target: human dopamine D4 receptor, polymorphic variant D4.4R, fused to Rluc (human) (UniProt P21917); test: as above
[3] = target: T2, α1AR-D4.4R (D4.4R read-out) (Homo sapiens, UniProt P21917); test: BRET beta-arrestin-2-Rluc recruitment to alpha1AR-YFP in HEK-293T; type: cell-based
T2 construct: gene DRD4; D4.4R (non-fused) co-expressed with alpha1AR in HEK-293T; alpha1AR non-fused in Gi assay, alpha1AR-YFP in beta-arrestin-2 assay; with Alpha-1A adrenergic receptor
T2 sequence (P21917 1-419): T1 sequence (P21917 1-419)
T2 sequence (P35348 1-466 partner): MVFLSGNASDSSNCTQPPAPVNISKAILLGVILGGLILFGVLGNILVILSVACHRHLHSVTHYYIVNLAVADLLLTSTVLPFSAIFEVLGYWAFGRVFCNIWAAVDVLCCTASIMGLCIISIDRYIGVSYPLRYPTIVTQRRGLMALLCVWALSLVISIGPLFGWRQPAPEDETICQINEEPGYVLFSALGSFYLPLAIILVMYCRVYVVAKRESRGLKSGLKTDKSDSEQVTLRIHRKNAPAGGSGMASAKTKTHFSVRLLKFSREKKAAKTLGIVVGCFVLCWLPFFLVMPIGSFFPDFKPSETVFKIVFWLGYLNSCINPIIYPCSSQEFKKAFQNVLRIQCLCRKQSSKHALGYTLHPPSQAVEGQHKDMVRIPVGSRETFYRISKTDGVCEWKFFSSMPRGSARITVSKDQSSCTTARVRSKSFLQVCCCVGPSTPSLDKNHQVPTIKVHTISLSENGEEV
From the text: BRET beta-arrestin-2-Rluc recruitment to alpha1AR-YFP in HEK-293T on α1AR-D4.4R (D4.4R read-out)

α1AR [4] = target: T3, α1AR (Homo sapiens, UniProt P35348); type: cell-based; conditions: antagonist 1 μM, added 10 min before A61603; alpha1AR alone
T3 construct: gene ADRA1A; non-fused full-length human alpha1AR in pcDNA3.1, transiently expressed in HEK-293T without D4R; Galphaq-Rluc or Galphas-Rluc, Ggamma2-YFP and Gbeta1 reporters co-transfected
T3 sequence (P35348 1-466): T2 sequence (P35348 1-466 partner)

α1AR [5] = target: T3, α1AR; test: BRET Gq and Gs activation in HEK-293T; type: cell-based; conditions: agonist; alpha1AR alone; 10 μM dopamine; intact cells

In the case of `Clc1ccc(N2CCN(Cc3c[nH]c4ncccc34)CC2)cc1` [L745870], the “BRET Gi1 activation in HEK-293T, antagonism of dopamine” value (D4.4R) is reported as “the selective D4R antagonist L745870, but not the α1AR antagonist prazosin, antagonized the effect of dopamine”.
“human dopamine D4 receptor, polymorphic variant D4.7R, fused to YFP” showed a BRET50 [1] of 25.
“human α1A adrenoreceptor fused to YFP (from UniProt P35348 1-466)” gave a BRET50 [2] of 33.
Work on `Cc1cccc(NC(=O)CN2CCC(c3ccccn3)CC2)c1` [A412997] yielded an EC50 [3] of 30 ± 19 nM.
With `COc1cc2nc(N3CCN(C(=O)c4ccco4)CC3)nc(N)c2cc1OC` [prazosin] the “BRET Gq and Gs activation in HEK-293T, antagonism of A61603” value (α1AR [4]) was “the effect of A61603 was counteracted by prazosin”.
`NCCc1ccc(O)c(O)c1` [dopamine] was tested, and the “% of norepinephrine effect at 10 μM” value (α1AR [5]) was < 50%.
